Assay results: patent publication US7429660B2, “ATM inhibitors” (Kudos Pharmaceuticals Limited, priority 2003, dated 2008)

Molecular target: T1, ATM protein immunoprecipitated from HeLa cell nuclear extract (Homo sapiens, UniProt Q13315)
T1 construct: ATM protein was immunoprecipitated from HeLa cell nuclear extract; endogenous in cells; host or cells: HeLa cell nuclear extract (immunoprecipitated with rabbit polyclonal anti-ATM antiserum)
Assay: In vitro ATM inhibition assay (phosphorylation of GSTp53N66 on serine 15, chemiluminescent detection); further: tested normally from 100 µM down to 0.1 nM
Assay type: biochemical
Settings: read-out: IC50 values (the concentration at which 50% of the enzyme activity is inhibited), ATM inhibition
Outline: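 Immunoprecipitated HeLa nuclear ATM (C-terminal anti-sera) with GSTp53N66 substrate in Hepes pH 7.4 buffer with MgCl2/MnCl2; inhibitor preincubated 10 min at 37 °C, then Na-ATP added, 1 h at 37 °C.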

T1 sequence (Q13315 whole entry): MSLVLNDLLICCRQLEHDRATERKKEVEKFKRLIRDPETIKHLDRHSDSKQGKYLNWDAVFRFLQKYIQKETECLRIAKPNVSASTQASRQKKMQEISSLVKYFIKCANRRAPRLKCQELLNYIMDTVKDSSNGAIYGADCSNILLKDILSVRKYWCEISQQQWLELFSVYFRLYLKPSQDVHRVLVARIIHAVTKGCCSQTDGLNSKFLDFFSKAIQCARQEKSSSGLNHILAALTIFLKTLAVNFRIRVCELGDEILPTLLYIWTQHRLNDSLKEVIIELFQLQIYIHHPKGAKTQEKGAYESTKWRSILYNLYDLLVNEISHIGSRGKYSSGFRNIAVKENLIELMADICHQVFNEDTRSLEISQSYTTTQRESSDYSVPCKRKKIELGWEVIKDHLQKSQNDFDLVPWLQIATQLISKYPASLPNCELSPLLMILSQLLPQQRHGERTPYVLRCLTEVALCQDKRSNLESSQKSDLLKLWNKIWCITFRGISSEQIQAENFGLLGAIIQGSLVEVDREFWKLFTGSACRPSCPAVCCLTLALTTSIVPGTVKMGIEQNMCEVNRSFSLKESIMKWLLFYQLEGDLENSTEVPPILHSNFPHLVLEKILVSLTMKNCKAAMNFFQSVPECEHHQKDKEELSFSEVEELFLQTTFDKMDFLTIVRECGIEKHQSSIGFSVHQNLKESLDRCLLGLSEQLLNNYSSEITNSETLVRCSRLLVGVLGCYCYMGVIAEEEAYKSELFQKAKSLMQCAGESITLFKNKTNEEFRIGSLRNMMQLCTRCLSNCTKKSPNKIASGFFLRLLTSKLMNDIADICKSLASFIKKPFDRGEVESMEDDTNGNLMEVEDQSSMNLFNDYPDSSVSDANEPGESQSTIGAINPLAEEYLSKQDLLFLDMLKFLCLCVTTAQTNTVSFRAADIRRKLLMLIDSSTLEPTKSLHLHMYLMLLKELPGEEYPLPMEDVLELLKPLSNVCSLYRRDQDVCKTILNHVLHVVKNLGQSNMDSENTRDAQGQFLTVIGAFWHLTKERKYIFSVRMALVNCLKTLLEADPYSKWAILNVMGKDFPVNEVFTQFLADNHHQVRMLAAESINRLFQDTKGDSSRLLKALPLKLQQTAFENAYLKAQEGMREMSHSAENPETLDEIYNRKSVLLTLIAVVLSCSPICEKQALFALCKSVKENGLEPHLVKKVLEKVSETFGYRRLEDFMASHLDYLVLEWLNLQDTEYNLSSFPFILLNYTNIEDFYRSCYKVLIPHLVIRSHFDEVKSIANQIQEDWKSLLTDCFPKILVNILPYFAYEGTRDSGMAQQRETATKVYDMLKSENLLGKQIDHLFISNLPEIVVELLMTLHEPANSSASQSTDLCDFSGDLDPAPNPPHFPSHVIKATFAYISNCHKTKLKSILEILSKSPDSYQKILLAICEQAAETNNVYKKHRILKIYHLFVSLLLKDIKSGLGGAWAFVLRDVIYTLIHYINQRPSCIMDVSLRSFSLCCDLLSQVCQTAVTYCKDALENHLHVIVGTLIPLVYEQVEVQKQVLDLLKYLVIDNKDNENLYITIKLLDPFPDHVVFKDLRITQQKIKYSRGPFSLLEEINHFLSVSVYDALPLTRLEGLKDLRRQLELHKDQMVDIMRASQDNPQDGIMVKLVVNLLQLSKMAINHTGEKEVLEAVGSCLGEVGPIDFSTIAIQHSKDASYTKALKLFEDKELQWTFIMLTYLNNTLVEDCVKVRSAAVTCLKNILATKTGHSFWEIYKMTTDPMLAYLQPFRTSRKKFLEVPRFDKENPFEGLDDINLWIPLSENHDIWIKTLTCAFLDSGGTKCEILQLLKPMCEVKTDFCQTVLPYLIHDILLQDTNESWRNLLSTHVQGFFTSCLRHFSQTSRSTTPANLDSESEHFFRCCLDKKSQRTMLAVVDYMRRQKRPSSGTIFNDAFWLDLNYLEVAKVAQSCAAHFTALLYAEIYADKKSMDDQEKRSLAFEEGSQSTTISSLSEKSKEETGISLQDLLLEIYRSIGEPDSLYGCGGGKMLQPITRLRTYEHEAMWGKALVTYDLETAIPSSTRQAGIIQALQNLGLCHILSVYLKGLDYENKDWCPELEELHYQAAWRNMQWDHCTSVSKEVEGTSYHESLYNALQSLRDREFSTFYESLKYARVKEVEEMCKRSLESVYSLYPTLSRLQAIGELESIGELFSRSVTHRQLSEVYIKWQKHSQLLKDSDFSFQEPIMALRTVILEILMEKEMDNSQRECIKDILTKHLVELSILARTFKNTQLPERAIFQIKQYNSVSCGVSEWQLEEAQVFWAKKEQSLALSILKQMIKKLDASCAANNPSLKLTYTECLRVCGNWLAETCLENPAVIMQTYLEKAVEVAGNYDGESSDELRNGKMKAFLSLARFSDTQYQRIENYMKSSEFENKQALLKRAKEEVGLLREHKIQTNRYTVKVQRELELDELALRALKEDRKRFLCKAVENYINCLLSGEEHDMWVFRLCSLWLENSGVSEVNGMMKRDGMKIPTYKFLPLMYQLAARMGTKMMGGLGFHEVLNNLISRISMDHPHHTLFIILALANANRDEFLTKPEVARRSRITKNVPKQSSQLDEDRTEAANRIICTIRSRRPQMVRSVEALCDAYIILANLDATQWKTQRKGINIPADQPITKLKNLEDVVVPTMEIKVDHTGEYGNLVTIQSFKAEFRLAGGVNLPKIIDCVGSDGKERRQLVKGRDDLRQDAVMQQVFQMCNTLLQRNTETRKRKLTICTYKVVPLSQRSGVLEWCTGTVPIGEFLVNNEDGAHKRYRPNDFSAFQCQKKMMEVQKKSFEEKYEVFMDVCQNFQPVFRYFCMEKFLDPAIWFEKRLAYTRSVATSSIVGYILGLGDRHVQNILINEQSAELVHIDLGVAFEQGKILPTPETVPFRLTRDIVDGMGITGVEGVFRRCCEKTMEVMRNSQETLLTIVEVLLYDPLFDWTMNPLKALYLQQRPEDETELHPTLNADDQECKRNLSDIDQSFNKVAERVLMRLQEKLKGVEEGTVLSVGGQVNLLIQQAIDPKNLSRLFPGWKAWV

Question: How did the IC50 turn out when `O=C(CCN1CCN(c2ccc(F)cc2)CC1)Nc1ccc2c(c1)Sc1cccc(-c3cc(=O)cc(N4CCOCC4)o3)c1S2` [Compound 121] was run?
Answer: < 200 nM

Question: With `O=C(CN1CCN(c2ncccn2)CC1)Nc1ccc2c(c1)Sc1cccc(-c3cc(=O)cc(N4CCOCC4)o3)c1S2` [Compound 84] as the compound, how does the IC50 read?
Answer: < 200 nM

Question: With `Cn1nc(O)cc1C(=O)Nc1ccc2c(c1)Sc1cccc(-c3cc(=O)cc(N4CCOCC4)o3)c1S2` [Compound 37] as the compound, how does the IC50 read?
Answer: < 200 nM

Question: Which IC50 does the source give for `C[C@@H]1CN(C(=O)COc2ccc3c(c2)Sc2cccc(-c4cc(=O)cc(N5CCOCC5)o4)c2S3)C[C@H](C)O1` [Compound 433] here?
Answer: < 200 nM

Question: How did the IC50 turn out when `O=c1cc(-c2cccc3c2Sc2ccc(OCCNCC(F)(F)F)cc2S3)oc(N2CCOCC2)c1` [Compound 379] was run?
Answer: < 200 nM

Question: How did the IC50 turn out when `CC(C)N1CCN(CCC(=O)Nc2ccc3c(c2)Cc2cccc(-c4cc(=O)cc(N5CCOCC5)o4)c2S3)CC1` [Compound 351] was run?
Answer: < 200 nM

Question: Which IC50 does the source give for `CN(C)CCN1CCN(CCC(=O)Nc2ccc3c(c2)Cc2cccc(-c4cc(=O)cc(N5CCOCC5)o4)c2S3)CC1` [Compound 356] here?
Answer: < 200 nM

Question: `O=c1cc(-c2cccc3c2Sc2ccccc2N3CCCNCc2cccnc2)oc(N2CCOCC2)c1` [Compound 267] was tested. Which IC50 did it give?
Answer: < 200 nM

Question: How did the IC50 turn out when `CN1CCN(C(=O)COc2ccc3c(c2)Sc2cccc(-c4cc(=O)cc(N5CCOCC5)o4)c2S3)CC1` [Compound 450] was run?
Answer: < 200 nM

Question: How did the IC50 turn out when `CCN(CC(=O)Nc1ccc2c(c1)Sc1cccc(-c3cc(=O)cc(N4CCOCC4)o3)c1S2)Cc1ccncc1` [Compound 72] was run?
Answer: < 200 nM

Question: How did the IC50 turn out when `O=C(CCCCC1SC[C@@H]2NC(=O)N[C@H]12)NCCCCCC(=O)NCCNCCCN1c2ccccc2Sc2c(-c3cc(=O)cc(N4CCOCC4)o3)cccc21` (stereo partly drawn) [Compound 336] was run?
Answer: < 200 nM

Question: With `O=C(CCN1CCCCC1)Nc1ccc2c(c1)Sc1cccc(-c3cc(=O)cc(N4CCOCC4)o3)c1S2` [Compound 92] as the compound, how does the IC50 read?
Answer: < 200 nM

Question: How did the IC50 turn out when `O=C(COc1ccc2c(c1)Sc1cccc(-c3cc(=O)cc(N4CCOCC4)o3)c1S2)N1CCCC(CO)C1` (stereo not drawn) [Compound 418] was run?
Answer: < 200 nM

Question: How did the IC50 turn out when `O=C(CNCc1ccncc1)Nc1ccc2c(c1)Sc1cccc(-c3cc(=O)cc(N4CCOCC4)o3)c1S2` [Compound 71] was run?
Answer: < 200 nM

Question: How did the IC50 turn out when `CC(C)N1CCN(CCC(=O)Nc2ccc3c(c2)Sc2cccc(-c4cc(=O)cc(N5CCOCC5)o4)c2S3)CC1` [Compound 118] was run?
Answer: < 200 nM

Question: `O=C(CCNCc1ccncc1)Nc1ccc2c(c1)Sc1cccc(-c3cc(=O)cc(N4CCOCC4)o3)c1S2` [Compound 110] was tested. Which IC50 did it give?
Answer: < 200 nM

Question: How did the IC50 turn out when `CCOC(=O)C1CCN(CCCN2c3ccccc3Sc3c(-c4cc(=O)cc(N5CCOCC5)o4)cccc32)CC1` [Compound 312] was run?
Answer: < 200 nM

Question: With `O=C(COc1ccc2c(c1)Cc1cccc(-c3cc(=O)cc(N4CCOCC4)o3)c1S2)N1CCCCCC1` [Compound 532] as the compound, how does the IC50 read?
Answer: < 200 nM

Question: How did the IC50 turn out when `O=C(COc1ccc2c(c1)Cc1cccc(-c3cc(=O)cc(N4CCOCC4)o3)c1S2)N1CCOCC1` [Compound 494] was run?
Answer: < 200 nM

Question: How did the IC50 turn out when `CN1CCN(CCOc2ccc3c(c2)Sc2cccc(-c4cc(=O)cc(N5CCOCC5)o4)c2S3)CC1` [Compound 361] was run?
Answer: < 200 nM

Question: `O=C(COc1ccc2c(c1)Cc1cccc(-c3cc(=O)cc(N4CCOCC4)o3)c1S2)NCC1CCCO1` (stereo not drawn) [Compound 497] was tested. Which IC50 did it give?
Answer: < 200 nM

Question: Which IC50 does the source give for `O=C(CCN1CCN(c2ccccn2)CC1)Nc1ccc2c(c1)Cc1cccc(-c3cc(=O)cc(N4CCOCC4)o3)c1S2` [Compound 353] here?
Answer: < 200 nM

Question: For `O=C(COc1ccc2c(c1)Sc1cccc(-c3cc(=O)cc(N4CCOCC4)o3)c1S2)NC(CO)CO` [Compound 411], which IC50 is on record?
Answer: < 200 nM

Question: How did the IC50 turn out when `CN1CCCC1CCNCCC(=O)Nc1ccc2c(c1)Sc1cccc(-c3cc(=O)cc(N4CCOCC4)o3)c1S2` (stereo not drawn) [Compound 114] was run?
Answer: < 200 nM

Question: For `O=C(CN1CCN(CCO)CC1)Nc1ccc2c(c1)Cc1cccc(-c3cc(=O)cc(N4CCOCC4)o3)c1S2` [Compound 348], which IC50 is on record?
Answer: < 200 nM

Question: Which IC50 does the source give for `CN1CCN(C(=O)c2ccc3c(c2)Sc2cccc(-c4cc(=O)cc(N5CCOCC5)o4)c2S3)CC1` [Compound 6] here?
Answer: < 200 nM

Question: `O=C(c1ccco1)N1CCN(CCOc2ccc3c(c2)Sc2cccc(-c4cc(=O)cc(N5CCOCC5)o4)c2S3)CC1` [Compound 395] was tested. Which IC50 did it give?
Answer: < 200 nM
